Results published in PMC11866022, “Long-Chain Cyclic Arylguanidines as Multifunctional Serotonin Receptor Ligands with Antiproliferative Activity” (ACS Omega, 2025).

What was measured:
5-HT6 = target: T1, 5-HT6 (Homo sapiens, UniProt P50406); assay: Functional cAMP assay (LANCE Ultra), 5-HT6; type: cell-based; conditions: Table 3, unit inferred, agonist mode
T1 construct: expressed in transfected cells; host or cells: HEK293

CYP3A4 = target: T2, CYP3A4 (Homo sapiens, UniProt P08684); assay: P450-Glo assay, CYP3A4; type: in vitro ADME
T2 construct: purchased Promega
T2 sequence (P08684 whole entry): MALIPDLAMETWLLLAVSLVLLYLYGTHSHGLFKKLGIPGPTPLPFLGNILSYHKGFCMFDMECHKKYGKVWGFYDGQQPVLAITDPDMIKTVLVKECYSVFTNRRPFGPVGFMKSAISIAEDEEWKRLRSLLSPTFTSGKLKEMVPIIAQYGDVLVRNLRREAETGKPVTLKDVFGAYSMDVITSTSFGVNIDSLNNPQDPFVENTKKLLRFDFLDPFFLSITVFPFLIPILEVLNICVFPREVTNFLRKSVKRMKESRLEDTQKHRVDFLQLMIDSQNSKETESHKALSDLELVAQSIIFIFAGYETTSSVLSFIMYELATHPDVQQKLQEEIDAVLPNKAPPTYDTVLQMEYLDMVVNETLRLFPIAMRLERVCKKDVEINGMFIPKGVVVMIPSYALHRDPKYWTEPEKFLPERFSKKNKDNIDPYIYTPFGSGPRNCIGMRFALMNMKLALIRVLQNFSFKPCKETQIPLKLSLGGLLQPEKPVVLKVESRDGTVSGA
Source text: (§1) In order to evaluate excretion, we examined the effect on the activity of two cytochrome P-450 isoforms. Inhibition of their activity may lead to the occurrence of drug–drug interactions.

[1] = tested on: Feline catus astrocyte (PG-4); assay: Cytotoxicity, PG-4 astrocytes; type: cell-based; conditions: Felis catus; normal astrocyte line
Method: The chosen group of ligands was further examined for their ability to inhibit proliferation across multiple cancer cell lines related to the CNS system (1321N1, U87MG, LN-229, and U-251). These cell lines were characterized by different mutation profiles, the main one being the variable status of the p53 protein. In detail, U87MG cells have a wild-type p53 protein, while astrocytoma and the rest of GBM cells harbor mutated p53 protein. Additional assays were performed on MCF7 breast cancer and AsPC-1 pancreatic cancer cells. The wide range of tested lines was aimed at screening the anticancer potential of the tested compounds. The first represents one of the most common and the second one of the most aggressive cancers in the world. Comparing the activity of compounds on GBM cells to other types of cancer may reveal their selectivity and usefulness in targeted therapies. The cytotoxicity of the compounds on normal human astrocytes (NHA) and Feline catus astrocyte (PG-4) was determined. Tests on normal lines serve to verify the potential toxicity of the tested compounds on healthy cells. Due to the targeting of CNS tumors, astrocytes were selected as normal lines.

CYP2D6 = target: T3, CYP2D6 (Homo sapiens, UniProt P10635); assay: P450-Glo assay, CYP2D6; type: in vitro ADME
T3 construct: purchased Promega
T3 sequence (P10635 whole entry): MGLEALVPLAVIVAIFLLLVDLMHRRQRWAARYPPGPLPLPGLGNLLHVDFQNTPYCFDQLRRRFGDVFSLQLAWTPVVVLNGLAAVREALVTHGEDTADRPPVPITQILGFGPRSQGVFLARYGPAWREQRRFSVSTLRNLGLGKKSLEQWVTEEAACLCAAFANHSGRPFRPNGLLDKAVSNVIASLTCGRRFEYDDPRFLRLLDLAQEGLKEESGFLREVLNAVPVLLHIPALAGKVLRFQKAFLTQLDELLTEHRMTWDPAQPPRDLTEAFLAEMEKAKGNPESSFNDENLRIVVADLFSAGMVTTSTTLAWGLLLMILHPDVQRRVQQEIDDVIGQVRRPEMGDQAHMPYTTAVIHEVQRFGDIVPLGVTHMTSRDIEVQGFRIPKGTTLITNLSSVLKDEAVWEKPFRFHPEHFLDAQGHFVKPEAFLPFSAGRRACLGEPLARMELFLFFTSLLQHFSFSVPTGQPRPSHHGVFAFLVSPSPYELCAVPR
Source text: as §1

Danio rerio [2] = conditions: in vivo
Method: (§2) Two compounds, PP 10 and PP 15, were tested for cardiotoxicity in the Danio rerio experimental model (OECD 236 test). […]. To assess potential neurotoxic effects, locomotor activity was examined in the Danio rerio model. Zebrafish larvae’s response to light and dark transitions serves as a useful method for detecting neurotoxicity. […] In our experiment, we switched from light to dark conditions, as zebrafish larvae are known to avoid light and seek darker areas. This behavior helps them evade predators and maintain ideal environmental conditions. […]
Figure 5 A: In vivo toxicity assessment of PP 10 and PP 15 in Danio rerio using the maximum tolerated concentration (MTC) toxicity test. B: Locomotor activity under light conditions, quantified as the distance (in cm) traveled per minute by 5-day postfertilization (dpf) Danio rerio larvae. C: Locomotor activity under dark conditions, with the distance (in cm) traveled per minute recorded for 5-dpf larvae. D: Comparison of activity during the transition from light to dark conditions. E3 refers to the fish embryo growth medium. […]
A locomotor activity test was conducted on zebrafish larvae ([…]). […] The distance traveled by the larvae was measured in both light and dark conditions using EthoVision XT15 software, and the mean distance per minute was calculated for each condition to assess locomotor activity. […]

D2 = target: T4, D2 (Homo sapiens, UniProt P14416); assay: Functional cAMP assay (LANCE Ultra), D2; type: cell-based; conditions: Table 3, unit inferred, antagonist mode, 10 nM dopamine
T4 construct: expressed in transfected cells; host or cells: HEK293
T4 sequence (P14416 whole entry): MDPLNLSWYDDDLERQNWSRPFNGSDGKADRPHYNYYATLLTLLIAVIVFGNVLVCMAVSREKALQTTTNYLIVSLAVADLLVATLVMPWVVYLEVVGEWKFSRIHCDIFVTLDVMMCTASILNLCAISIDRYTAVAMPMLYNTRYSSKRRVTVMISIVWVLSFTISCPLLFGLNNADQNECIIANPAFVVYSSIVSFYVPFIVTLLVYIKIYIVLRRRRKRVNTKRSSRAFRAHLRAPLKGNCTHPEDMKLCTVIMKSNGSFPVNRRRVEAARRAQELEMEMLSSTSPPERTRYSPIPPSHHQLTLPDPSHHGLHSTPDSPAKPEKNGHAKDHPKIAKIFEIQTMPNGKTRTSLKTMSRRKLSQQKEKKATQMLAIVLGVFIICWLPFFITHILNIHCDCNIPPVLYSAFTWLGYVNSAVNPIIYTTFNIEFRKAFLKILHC
Method: Their functional activity was also evaluated by assessing their ability to inhibit agonist-induced cAMP production in HEK293 cells (Table 3). Extended radioisotope tests were aimed at detecting potential affinity for other aminergic receptors, whose role in cancer treatment may be important. Functions were tested for all receptors. The essence of functional tests results from the fact that serotonin stimulates tumor progression. Therefore, the ligand should have the potential to reduce its concentration, i.e., act as an antagonist.[39]
The detailed procedure is presented in previous publications.[53] The functional activity of the compounds was assessed using the LANCE Ultra cAMP detection kit (PerkinElmer). […] For other receptors (5-HT7R, 5-HT1AR, and 5-HT6R), 5-CT was used at 10, 100, and 1000 nM, respectively. Each compound was tested in triplicate across eight concentrations. The inhibitory constant (Kb) for each antagonist was calculated using the Cheng–Prusoff equation.

HSA and AGP (24:1) = assay: TRANSILXL PPB plasma protein binding assay; conditions: human, TRANSILXL PPB assay, HSA and AGP in a ratio 24:1
Danio rerio [3] = assay: Fish embryo toxicity test (OECD 236); type: in vivo; conditions: Danio rerio embryos, 96 h of exposure
Method: Two compounds, PP 10 and PP 15, were tested for cardiotoxicity in the Danio rerio experimental model (OECD 236 test). […] To assess potential neurotoxic effects, locomotor activity was examined in the Danio rerio model. Zebrafish larvae’s response to light and dark transitions serves as a useful method for detecting neurotoxicity. […] In our experiment, we switched from light to dark conditions, as zebrafish larvae are known to avoid light and seek darker areas. This behavior helps them evade predators and maintain ideal environmental conditions.
(§3) Figure 4 A: Toxicity of PP 10 and PP 15in vivo in the Danio reiro embryo toxicity test. […] Cardiotoxicity of compounds B: PP 10 and C: PP 15 was evaluated by measuring the heart rate (beats per minute) in 5-dpf Danio rerio larvae, maintained in the E3 fish embryo growth medium. Statistical analysis was performed using GraphPad Prism 10.0.0, with one-way ANOVA followed by Dunnett’s comparison test (*p < 0.05, compared to the negative control E3).
The toxicity of compounds was evaluated using two tests: the fish embryo toxicity (FET) test and neurotoxicity assessment.[53] […] Acute toxicity was assessed by monitoring signs such as coagulation of fertilized eggs, somite formation absence, tailbud separation, and lack of heartbeat. The LD50 value was calculated, and cardiovascular effects were monitored through heartbeat observations.

Danio rerio [4] = conditions: in vivo; remark: listed apart in the source
Method: as §2
as §3, with “E3). […] | The toxicity of compounds was evaluated using two tests: the fish embryo toxicity (FET) test and neurotoxicity assessment.[53] […] Acute toxicity was assessed by monitoring signs such as coagulation of fertilized eggs, somite formation absence, tailbud separation, and lack of heartbeat. The LD50 value was calculated, and cardiovascular effects were monitored through heartbeat observations.” for “E3).”

T1 sequence (P50406 whole entry): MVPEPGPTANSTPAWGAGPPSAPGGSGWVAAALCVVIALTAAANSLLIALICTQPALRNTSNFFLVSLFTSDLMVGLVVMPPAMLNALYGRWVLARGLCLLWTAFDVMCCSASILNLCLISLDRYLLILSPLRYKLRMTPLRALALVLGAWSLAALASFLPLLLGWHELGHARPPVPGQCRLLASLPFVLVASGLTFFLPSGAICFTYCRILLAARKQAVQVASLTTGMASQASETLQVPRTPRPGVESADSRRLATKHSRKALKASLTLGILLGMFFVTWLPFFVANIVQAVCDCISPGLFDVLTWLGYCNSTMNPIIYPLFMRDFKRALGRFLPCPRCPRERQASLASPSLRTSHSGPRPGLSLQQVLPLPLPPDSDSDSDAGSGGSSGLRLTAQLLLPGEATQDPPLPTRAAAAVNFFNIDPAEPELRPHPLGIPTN

| SMILES | EC50 (5-HT6) [nM] | impact on the activity of CYP3A4 (CYP3A4) | IC50 [1] [nM] | impact on the activity of CYP2D6 (CYP2D6) | neurotoxic effects (locomotor activity, light to dark) (Danio rerio [2]) | Kb (D2) [nM] | fraction unbound (HSA and AGP (24:1)) | LD50 / LC50 (Figure 4) (Danio rerio [3]) [µg/mL] | cardiotoxic effects (heart rate) (Danio rerio [4]) |
| --- | --- | --- | --- | --- | --- | --- | --- | --- | --- |
| O=S(=O)(c1cccc2ccccc12)N1CCN(CCNC2=Nc3ccccc3CN2)CC1 [PP 6, N-{2-[4-(Naphthalene-1-sulfonyl)piperazin-1-yl]ethyl}-3,4-dihydroquinazolin-2-amine] | 367 |  |  |  |  |  |  |  |  |
| CC1NC(NCCCCCCNS(=O)(=O)c2cccc3ccccc23)=Nc2ccccc21 (stereo not shown) [PP 10, N-{6-[(4-Methyl-3,4-dihydroquinazolin-2-yl)amino]hexyl}naphthalene-1-sulfonamide] |  | weakest interaction | > 25000 | strong effect at a concentration of 1 μM | minimal neurotoxic effects | 1810 | 0.003 | 15.34 | Neither compound displayed cardiotoxic effects |
| CC1NC(NCCCCCCNS(=O)(=O)c2c(Cl)ccc3ccccc23)=Nc2ccccc21 (stereo not shown) [PP 13, 2-Chloro-N-{6-[(4-methyl-3,4-dihydroquinazolin-2-yl)amino]hexyl}naphthalene-1-sulfonamide] | 488 |  |  |  |  | 858 | 0.001 ± 3e-07 |  |  |
| O=S(=O)(NCCCCCCNc1ncc2ccccc2n1)c1cccc2ccccc12 [PP 15, N-{6-[(Quinazolin-2-yl)amino]hexyl}naphthalene-1-sulfonamide] |  | passive | > 25000 | passive | minimal neurotoxic effects |  |  | 2.147 | Neither compound displayed cardiotoxic effects |
| O=S1(=O)c2cccc3cccc(c23)N1CCCCCCNC1=Nc2ccccc2CN1 [PP 24, 3-{6-[(3,4-Dihydroquinazolin-2-yl)amino]hexyl}-2λ^6-thia-3-azatricyclo[6.3.1.0^4,^12]dodeca-1(11),4(12),5,7,9-pentaene-2,2-dione] |  |  |  |  |  |  | 0.004 |  |  |
